Each structure is given as a SMILES string. “And” between values parts separate entries of the source, which are not always exact repeats. Equal entries are not always repeated.

The subject of this experiment is 997537-175-T-J1-PDC complex spheroid viability. Description: Anticancer human tumor 997537-175-T-J1-PDC patient-derived colon adenocarcinoma cell line growth inhibition [GQUAD]. The following applies: for viability, T/C: stronger effect = lower value. From the text: DNA G-quadruplex Stabilizer Agents in Combinations in Complex Spheroids
A high-throughput screen of multi-cell type tumor spheroids was designed to identify active combinations of DNA G-quadruplex stabilizer agents and targeted small molecules. Complex spheroids include a stromal component modeled by human endothelial cells (HUVEC) and fibroblasts modeled by human mesenchymal stem cells (MSCs). The concentration ranges selected for each drug and investigational agent were based upon clinically achievable concentrations if the clinical Cmax of the agent was known.
Compounds. The drugs and investigational agents: pidnarulex (CX-5461; NSC782164), APTO-253 (NSC789042), BRACO-19 (NSC847499), peposertib (NSC802822), ceralasertib (NSC780249), elimusertib (NSC800525), camonsertib (NSC841442), AZD-1390 (NSC803789), olaparib (NSC753686), talazoparib (NSC767125), ART-558 (NSC835418), sotorasib (NSC818433), MRTX-1133 (NSC836407), SN-38 (NSC673596), topotecan (NSC609699), etoposide (NSC141540), doxorubicin (NSC123127), gemcitabine (NSC613327), 5-fluorouracil (NSC19893), paclitaxel (NSC125973), vemurafenib (NSC761431), panobinostat (NSC761190), R-306465 (JNJ-16241199; NSC773264), adavosertib (NSC754352), TP-3654 (NSC805149), carboplatin (NSC241240), KSQ-4279 (NSC840948), and staurosporine (NSC755774) were obtained from the National Cancer Institute (NCI) Developmental Therapeutics Program Chemical Repository (34). The FDA-approved anticancer drug set is available from the NCI Developmental Therapeutics Program. […] The stock solutions were prepared in dimethyl sulfoxide (DMSO, Sigma-Aldrich, St. Louis, MO, cat. D2650) at 800-fold the tested concentration and stored at -70 degrees C prior to their use. All drugs and investigational agents were tested over a range starting from a high concentration at or near the clinical Cmax and decreasing in half-log increments. If the clinical Cmax for an agent had not been determined, the highest concentration tested was 10 microM.
2.3 Cell Culture. All cells were maintained in an incubator at 37 degrees C and 5% CO2 with 95% humidity. The PDC lines were cultured according to standard operating procedures established by the NCI PDMR. All PDCs were thawed and cultured in Matrigel-coated flasks prepared with a working solution of 1X Ham's F-12 nutrient mix, without supplementation (Invitrogen, cat. 11765054), 100 U/mL penicillin-streptomycin (Invitrogen, cat. 15140122), and 2.5% Matrigel (Corning Inc., cat. 354248) for the first three passages. The 857933-349-R-J2-PDC line was cultured in 6C/Colon 1B media, which includes advanced DMEM/F-12 (Thermo Fisher Scientific, cat. 12634028), 10 mM HEPES (Thermo Fisher Scientific, cat. 15630080), 1X GlutaMAX supplement (Thermo Fisher Scientific, cat. 35050061), 0.1 mg/mL primocin (InvivoGen, cat. ant-pm-2), 10% defined fetal bovine serum, heat inactivated (HyClone Laboratories Inc., cat. SH30070.03HI), 50% L-WRN conditioned media (ATCC, cat. CRL-3276), 1.25 mM N-Acetyl-L-cysteine (Sigma-Aldrich, cat. A9165), 10 mM nicotinamide (Sigma-Aldrich, cat. N0636), 1X B-27 supplement (Thermo Fisher Scientific, cat. 17504044), 1X N-2 supplement (Thermo Fisher Scientific, cat. 17502048), 10 microM Y-27632 dihydrochloride (Tocris Bioscience, cat. 1254), and 50 ng/mL human EGF recombinant protein (Thermo Fisher Scientific, cat. PHG0311). The 485176-168-R4-J1-PDC line was cultured in Panc media, which includes all 6C/Colon 1B media components plus 100 ng/mL human FGF-10 (Thermo Fisher Scientific, cat. 100-26), 500 nM SB-431542 (Selleckchem, cat. S1067), and gastrin (Tocris, cat. 3006).
[…]

Where [1] appears, read: curve of first compound, second compound 0.0316 µM.
Where [2] appears, read: curve of first compound, second compound 0.1 µM.
Where [3] appears, read: curve of first compound, second compound 0.316 µM.
Where [4] appears, read: curve of first compound, second compound 1 µM.
Setting [5] is: curve of first compound, second compound 3.16 µM.
Setting [6] is: curve of first compound, second compound 10 µM.
[7] abbreviates: second compound 0.0316 µM, first compound 0.0316 µM.
[8] abbreviates: second compound 0.0316 µM, first compound 0.1 µM.
Where [9] appears, read: second compound 0.0316 µM, first compound 0.316 µM.
The mark [10] stands for this setting: second compound 0.0316 µM, first compound 1 µM.
The mark [11] stands for this setting: second compound 0.0316 µM, first compound 3.16 µM.
Setting [12] is: second compound 0.0316 µM, first compound 10 µM.
[13] abbreviates: second compound 0.1 µM, first compound 0.0316 µM.
Setting [14] is: second compound 0.1 µM, first compound 0.1 µM.
[15] abbreviates: second compound 0.1 µM, first compound 0.316 µM.
Where [16] appears, read: second compound 0.1 µM, first compound 1 µM.
The mark [17] stands for this setting: second compound 0.1 µM, first compound 3.16 µM.
The mark [18] stands for this setting: second compound 0.1 µM, first compound 10 µM.
The mark [19] stands for this setting: second compound 0.316 µM, first compound 0.0316 µM.
Where [20] appears, read: second compound 0.316 µM, first compound 0.1 µM.
The mark [21] stands for this setting: second compound 0.316 µM, first compound 0.316 µM.
The mark [22] stands for this setting: second compound 0.316 µM, first compound 1 µM.
The mark [23] stands for this setting: second compound 0.316 µM, first compound 3.16 µM.
[24] abbreviates: second compound 0.316 µM, first compound 10 µM.
Where [25] appears, read: second compound 1 µM, first compound 0.0316 µM.
Where [26] appears, read: second compound 1 µM, first compound 0.1 µM.
[27] abbreviates: second compound 1 µM, first compound 0.316 µM.
The mark [28] stands for this setting: second compound 1 µM, first compound 1 µM.
[29] abbreviates: second compound 1 µM, first compound 3.16 µM.
Where [30] appears, read: second compound 1 µM, first compound 10 µM.
Where [31] appears, read: second compound 3.16 µM, first compound 0.0316 µM.
[32] abbreviates: second compound 3.16 µM, first compound 0.1 µM.
[33] abbreviates: second compound 3.16 µM, first compound 0.316 µM.
Setting [34] is: second compound 3.16 µM, first compound 1 µM.
Setting [35] is: second compound 3.16 µM, first compound 3.16 µM.
Setting [36] is: second compound 3.16 µM, first compound 10 µM.
[37] abbreviates: second compound 10 µM, first compound 0.0316 µM.
The mark [38] stands for this setting: second compound 10 µM, first compound 0.1 µM.
Setting [39] is: second compound 10 µM, first compound 0.316 µM.
The mark [40] stands for this setting: second compound 10 µM, first compound 1 µM.
[41] abbreviates: second compound 10 µM, first compound 3.16 µM.
[42] abbreviates: second compound 10 µM, first compound 10 µM.
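Note: spheroids exposed to the agents for 7 days.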

A word on the viability, T/C: it is the result in the treated group divided by that in the control group, in per cent. In general, IC50 refers to the concentration that inhibits the measured activity by half. Regarding `CC(C)(O)C1CCC(Nc2ccc3ncc(-c4cccc(C(F)(F)F)c4)n3n2)CC1` (stereo unspecified), the viability, T/C by setting is: (compound 0.0316 µM) 106% and 96.5% and 115%; (compound 0.1 µM) 111% and 78.3% and 65.2%; (compound 0.316 µM) 114% and 96.7% and 109%; (compound 1 µM) 101% and 61.5% and 68.3%; (compound 3.16 µM) 98.6% and 24.1% and 40.3%; (compound 10 µM) 96.8% and 28.7% and 36.9%. Moreover, for the setting “curve of compound”, the IC50 was > 10 µM and 1.46 µM and 2.03 µM.
As for `CC(=O)O[C@H]1C(=O)[C@@]2(C)[C@H]([C@H](OC(=O)c3ccccc3)[C@]3(O)C[C@H](OC(=O)[C@H](O)[C@@H](NC(=O)c4ccccc4)c4ccccc4)C(C)=C1C3(C)C)[C@]1(OC(C)=O)CO[C@@H]1C[C@@H]2O` + Cc1[nH]c2ccc(F)cc2c1-c1nc2c3cccnc3c3ncccc3c2[nH]1, the half-inhibitory concentration (IC50) stood at 2.8 µM under setting [1]; 4.12 µM under setting [2]; 4.51 µM under setting [3]; 3.63 µM under setting [4]; 2.19 µM under setting [5]; 1.97 µM under setting [6]. The viability, T/C under setting [7] is 97.5%; the viability, T/C under setting [8] is 93.3%; the viability, T/C under setting [9] is 80.5%; the viability, T/C under setting [10] is 92.1%; the viability, T/C under setting [11] was 45.2%; the viability, T/C under setting [12] was 0.33%. The viability, T/C is 102% under setting [13]; 106% under setting [14]; 86.6% under setting [15]; 90.9% under setting [16]; 65.6% under setting [17]; 0.32% under setting [18]. Further, the viability, T/C is, setting by setting: under setting [19], 113%; under setting [20], 91%; under setting [21], 85.7%; under setting [22], 87.7%; under setting [23], 75.5%; under setting [24], 0.3%. The viability, T/C reads like this: under setting [25], 94.1%; under setting [26], 93.3%; under setting [27], 96.2%; under setting [28], 89.8%; under setting [29], 56.8%; under setting [30], 0.2%. Further, the viability, T/C was 83.7% under setting [31]; 93.3% under setting [32]; 96.7% under setting [33]; 84.8% under setting [34]; 33.4% under setting [35]; 0.38% under setting [36]. The viability, T/C under setting [37] was 78.5%; the viability, T/C under setting [38] was 90.1%; the viability, T/C under setting [39] was 77.2%; the viability, T/C under setting [40] was 78%; the viability, T/C under setting [41] is 30.7%; the viability, T/C under setting [42] was 0.47%.
For `COc1cccc2c1C(=O)c1c(O)c3c(c(O)c1C2=O)CC(O)(C(=O)CO)CC3OC1CC(N)C(O)C(C)O1` (stereo unspecified) + Cc1[nH]c2ccc(F)cc2c1-c1nc2c3cccnc3c3ncccc3c2[nH]1, the IC50 reads like this: under setting [1], above 10 µM; under setting [2], 9.79 µM; under setting [3], 8.04 µM; under setting [4], 8.48 µM; under setting [5], 6.46 µM; under setting [6], 5.6 µM. Moreover, the viability, T/C under setting [7] is 97.6%; the viability, T/C under setting [8] is 82.8%; the viability, T/C under setting [9] is 101%; the viability, T/C under setting [10] is 97.7%; the viability, T/C under setting [11] was 95.5%; the viability, T/C under setting [12] was 51.1%. The viability, T/C was 80.7% under setting [13]; 78% under setting [14]; 95.4% under setting [15]; 91.7% under setting [16]; 96.9% under setting [17]; 49.2% under setting [18]. For the same compound, the viability, T/C is 101% under setting [19]; 83.3% under setting [20]; 80.7% under setting [21]; 96.9% under setting [22]; 79.8% under setting [23]; 43.1% under setting [24]. Also, the viability, T/C runs as follows: under setting [25], 76.2%; under setting [26], 91.3%; under setting [27], 92.7%; under setting [28], 85.4%; under setting [29], 80.3%; under setting [30], 44.9%. The viability, T/C is 74% under setting [31]; 64.4% under setting [32]; 84.1% under setting [33]; 83.6% under setting [34]; 95.1% under setting [35]; 31.4% under setting [36]. The viability, T/C under setting [37] is 67.6%; the viability, T/C under setting [38] was 86.5%; the viability, T/C under setting [39] was 94.1%; the viability, T/C under setting [40] was 88.7%; the viability, T/C under setting [41] was 66.7%; the viability, T/C under setting [42] is 33.2%.
In the case of `Cc1cnc(CNC(=O)c2c(=O)c3ccc(N4CCCN(C)CC4)nc3n3c2sc2ccccc23)cn1`, the viability, T/C is 95.7% [middle of 12 runs] (compound 0.1 µM), 96.5% [middle of 12 runs] (compound 0.316 µM), 103% [middle of 12 runs] (compound 1 µM) and 91.5% [middle of 12 runs] (compound 10 µM). In addition, the 50% inhibitory concentration (IC50) (compound alone, run of 04/16/2024) was above 10 µM.

(Values after PubChem BioAssay AID2060487 (Molecular Pharmacology Branch, DTP, NCI, 2025).)
